The values that follow come from patent US6806281B2 (Georgetown University, priority 1997, dated 2004).

Each structure is given as a SMILES string.

In general, melting point refers to the temperature of the solid-liquid transition. A word on the IC50: it is the concentration at which inhibition is half-maximal. A lower IC50 goes with inhibition by little substance.

One series in a line: Locomotor activity. In kind it is in vivo, Sprague-Dawley rats. As for the experimental part:
The locomotor effects of compound 2 were evaluated using male Swiss Webster mice according to previously published procedures: Izenwasser, S., Terry, P., Heller, B., Witkin, J. M., and Katz, J. L. (1994) Differential relationships among dopamine transporter affinities and stimulant potencies of various uptake inhibitors. Eur. J. Pharmacol., 263, 277-283.
Thus the small behavioral responses to the piperidine analog appear to last longer than that of cocaine.

Series [1] is described as follows: Drug discrimination, cocaine substitution and co-administration tests. The class given is in vivo, rats.
The nature of series [2]: Drug discrimination, amphetamine substitution tests. The class given is in vivo, rats. Particulars: for response rates: across all test doses.
A short description of series [3]: Intravenous drug self-administration. The class given is in vivo, rats. Particulars: for self-administration responding: i.v., FR10, cocaine 1 mg/kg/infusion, analog 2 0.3-3 mg/kg/infusion, analog 3 0.125-0.5 mg/kg infusion, vs saline extinction. The text has this: J. Neurosci., 16, 7416-7427.
Rats were initially trained to lever press for food pellets in standard operant boxes. Following lever press training, rats were implanted with polyvinyl chloride catheters into femoral veins under halothane anesthesia (2-3% in medical grade oxygen) and were allowed to recover for an additional 7 days before initiation of i.v. drug self-administration testing. During drug self-administration sessions, food pellets were no longer delivered, and instead intravenous injections of drugs were delivered by way of the catheter.
Following this second extinction test, self-administration of piperidine analog 2 was studied at doses of 1, 3, and 0.3 mg/kg/infusion in that order. Each dose was tested for five days. During all the re-acquisition test days, a priming infusion was given at the start of the session on each day.

The target in series [4] is T1, dopamine transporter (Rattus norvegicus, UniProt P23977). Nature of the series: biochemical. Particulars: IC50 (nM) [3H]dopamine uptake, rat striatal synaptosomes.
The target in series [5] is T1, dopamine transporter. The series can be described thus: biochemical. As to conditions: IC50 (nM) [3H]WIN 35,428 binding, rat striatal membranes.
The target of series [6] is T1, dopamine transporter. As to conditions: relative to cocaine.
Series [7] has as its target T1, dopamine transporter. As to conditions: relative to cocaine. This is another data set of the same source.
In series [8] the test system is striatal dopamine transporter. Nature of the series: PET evaluation of 11C-labeled isomers. Particulars: for specific binding to striatal dopamine transporter sites: in vivo PET. As for the experimental part: The products were purified by HPLC on a C-18 cartridge eluted with MeOH:phosphate/triethylamine buffer, pH 7.2 (60:40).
After passage through a 0.22 μm filter, the sterile products were administered to three Rhesus monkeys and dynamic PET images were acquired over 90 minutes.

T1 sequence (P23977 whole entry): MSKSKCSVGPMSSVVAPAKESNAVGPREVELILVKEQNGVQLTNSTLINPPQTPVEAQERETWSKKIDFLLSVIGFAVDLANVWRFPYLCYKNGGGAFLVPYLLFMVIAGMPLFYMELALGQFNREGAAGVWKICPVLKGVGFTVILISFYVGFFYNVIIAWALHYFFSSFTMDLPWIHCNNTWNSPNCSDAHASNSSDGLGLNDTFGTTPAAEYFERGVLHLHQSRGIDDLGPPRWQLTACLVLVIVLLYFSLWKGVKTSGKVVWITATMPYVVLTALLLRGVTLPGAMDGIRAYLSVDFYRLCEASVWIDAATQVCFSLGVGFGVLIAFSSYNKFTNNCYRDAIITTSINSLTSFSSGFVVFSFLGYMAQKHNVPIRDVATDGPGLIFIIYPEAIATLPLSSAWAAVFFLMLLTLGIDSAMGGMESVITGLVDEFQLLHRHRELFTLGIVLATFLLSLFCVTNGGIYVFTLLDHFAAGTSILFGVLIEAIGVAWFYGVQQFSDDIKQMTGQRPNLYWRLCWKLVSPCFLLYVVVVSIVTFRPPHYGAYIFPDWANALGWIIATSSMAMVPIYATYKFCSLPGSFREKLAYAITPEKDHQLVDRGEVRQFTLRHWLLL

For `COC(=O)C1CN(C)CCC1c1ccc(Cl)cc1` (racemic) [(±)-2, (±)-cis-Methyl 4-(4-Chlorophenyl)-1-methylpiperidine-3-carboxylate], the “time-course of stereotypic response” value in the series “Locomotor activity” (90 minutes following the drug injection) was “persistent at 90 minutes”. Besides, the convulsions entry in “Locomotor activity” (doses higher than 20 mg/kg i.p.) is “produce convulsions”. Further, the distance traveled entry in the series “Locomotor activity” (i.p., cocaine 10 mg/kg, analog 2 3-20 mg/kg, compared to saline control) is reported as “did not alter the distance traveled”. In addition, the “stereotypic behavior / stereotypic time” value in “Locomotor activity” (i.p., cocaine 10 mg/kg, analog 2 10 and 20 mg/kg, compared to saline control) is on record as “small, statistically nonsignificant increase in stereotypic time”. Besides, the “effect of co-administration on drug choice and response rate of cocaine” value in series [1] (analog 2 10 mg/kg plus cocaine 1.25 and 5 mg/kg) is recorded as “did not significantly alter drug choice”. For the same compound, in [1] (analog 2 5 and 10 mg/kg), the “response rates compared with cocaine (10 mg/kg)” value is listed as “substantially lower”. In addition, the maximum cocaine-lever responding in series [1] (analog 2 5 and 20 mg/kg) turned out to be 40%. The response rates result in series [2] is listed as “remained fairly stable”. The “number of infusions delivered” value in [3] (analog 2, all doses tested (0.3-3 mg/kg/infusion), vs saline extinction test) was “not significantly different from that of the saline extinction test”. The self-administration responding result in series [3] is reported as “failed to restore the self-administration responding”.

Consider `COC(=O)[C@@H]1CN(C)CC[C@@H]1c1ccc(Cl)cc1` (racemic) [Compound (±)-1, (±)-cis-Methyl 4-(4-Chlorophenyl)-1-methylpiperidine-3-carboxylate], for which the melting point fell in the range of 98 to 99 °C.

`COC(=O)C1CN(C)CCC1c1ccc(Cl)cc1` (single isomer, unassigned; (+)) [(+)-11, (+)-Methyl 4β-(4-chlorophenyl)-1-methylpiperidine-3α-carboxylate]: the IC50 on dopamine transporter [4] was determined as 34.6 ± 3.2 nM; at dopamine transporter [5] it was 57.3 ± 8.1 nM.

As to `CCCC1CN(C)CCC1c1ccc(Cl)cc1` (single isomer, unassigned; (+)) [(+)-15, (+) 4β-(4-chlorophenyl)-1-methyl-3α-n-propylpiperidine], the IC50 on dopamine transporter [4] came to 23.2 ± 2.2 nM; at dopamine transporter [5], 17.2 ± 0.5 nM.

With `COC(=O)C1CN(C)CCC1c1ccc(Cl)cc1` (single isomer, unassigned; (-)) [(−)-3, (−)-Methyl 4β-(4-chlorophenyl)-1-methylpiperidine-3β-carboxylate], the IC50 against dopamine transporter [4] was determined as 85.2 ± 2.6 nM; on dopamine transporter [5], 24.8 ± 1.6 nM. In series [3], the self-administration responding result is “rats reliably self-administered this compound”.

In the case of `CN1CCC(c2ccc(Cl)cc2)C(CO)C1` (single isomer, unassigned; (-)) [(−)-5, (−)-4β-(4-Chlorophenyl)-3β-(hydroxymethyl)-1-methylpiperidine], the IC50 against dopamine transporter [4] stood at 49 ± 3 nM.

`CC(=O)OCC1CN(C)CCC1c1ccc(Cl)cc1` (single isomer, unassigned; (-)) [(−)-7, (−)-3β-(Acetoxymnethyl)-4β-(4-chlorophenyl)-1-methylpiperidine] registered a melting point of 76 °C. The compound further had an IC50 at dopamine transporter [4] of 62.9 ± 2.7 nM. The IC50 at dopamine transporter [5] turned out to be 44.7 ± 10.5 nM.

As to `CCCC1CN(C)CCC1c1ccc(Cl)cc1` (single isomer, unassigned; (-)) [(−)-9, (−) 4β-(4-chlorophenyl)-1-methyl-3β-n-propylpiperidine], the “fold more potent than cocaine in binding affinity” value on dopamine transporter [6] is reported as 33 fold. Moreover, the “fold more potent than cocaine in inhibition of dopamine uptake” value on dopamine transporter [7] is 29 fold. The IC50 came to 8.3 ± 0.6 nM against dopamine transporter [4] and 3 nM at dopamine transporter [5].

Take `COC(=O)C1CN(C)CCC1c1ccc(Cl)cc1` (single isomer, unassigned; isomer 4) [cis isomer, 4-(4-chlorophenyl)-3-carbomethoxy-N-methylpiperidine]: the “accumulation in brain regions (dynamic PET)” value in [8] (11C-labeled, PET images over 90 minutes) is reported as “greater nonspecific accumulation in the cortex”. The “specific binding to striatal dopamine transporter sites” value in series [8] is “high levels of specific binding”.

In the case of `COC(=O)C1CN(C)CCC1c1ccc(Cl)cc1` (single isomer, unassigned; isomer 4) [trans isomer, 4-(4-chlorophenyl)-3-carbomethoxy-N-methylpiperidine], in [8], the “specific binding to striatal dopamine transporter sites” value is listed as “high levels of specific binding”. The “striatal activity after unlabeled CFT” value in [8] (unlabeled CFT administered 60 minutes after injection) was “selective decrease in the striatal activity”.

Take `CC(N)Cc1ccccc1` (centres unmarked) [amphetamine]: the response rates result in series [2] is given as “remained fairly stable”. Further, the “substitution for the discriminative stimulus effects of amphetamine” value in series [2] (substitution tests) is “dose-dependent and complete substitution”.
